US20220226340A1, “CASEIN KINASE 1 INHIBITORS FOR USE IN THE TREATMENT OF DISEASES RELATED TO DUX4 EXPRESSION SUCH AS MUSCULAR DYSTROPHY AND CANCER” (Facio Intellectual Property B.V., priority 2019, published 2022)
Read-outs that look alike come from different tables or passages of the source.

Key:
CK1α = CK1α (Homo sapiens, UniProt P48729); assay: CK1α inhibition IC50; format: biochemical
DUX4 = assay: high-content immunocytochemistry assay of endogenous DUX4 expression in differentiating primary FSHD myotubes; format: cell-based, human; details: for EC50: Homo sapiens, Myotube
Source text: A quantitative assay readout was developed based on script-based image analysis. […] To analyse the images, an automated script was developed, enabling the detection of nuclei, myotube borders and DUX4 signals, with the script also detecting artefacts to reduce false positive signals. The script enabled multiple validated readouts including the number of DUX4 positive nuclei and nuclei clusters, the fusion index, myotube area, myotube width and myotube skeleton length (see FIG. 2). Additionally, the total nuclei count was included as a measure of cell loss or compound toxicity.
A compound library containing approximately 5000 annotated compounds was screened in the high-content assay. For this purpose, primary myoblasts were seeded in 384 well plates after which the growth medium was replaced with differentiation medium. After 3 days of differentiation, cells were treated with library compounds (in duplicate on different screening plates) for 15 h, after which they were fixed and stained with antibodies against DUX4, antibodies against myosin heavy chain (MHC), and with DAPI (4′,6-diamidino-2-phenylindole). Script-based analysis provided readouts for DUX4 expression (count of DUX4-positive nuclei or DUX4 intensity) and for potential toxicity (fusion index and nuclei count).
Compounds were incubated with primary FSHD cells for 15 hours, as indicated by the arrow in FIG. 4A.
Compounds are administered either 15 h before fixation, resembling the original screening protocol, or 72 h before fixation (grey arrow). In the latter case, compounds are present during the whole differentiation process.

CK1δ = CK1δ (Homo sapiens, UniProt P48730); assay: CK1δ inhibition IC50; format: biochemical
Sequence of CK1δ (P48730 whole entry): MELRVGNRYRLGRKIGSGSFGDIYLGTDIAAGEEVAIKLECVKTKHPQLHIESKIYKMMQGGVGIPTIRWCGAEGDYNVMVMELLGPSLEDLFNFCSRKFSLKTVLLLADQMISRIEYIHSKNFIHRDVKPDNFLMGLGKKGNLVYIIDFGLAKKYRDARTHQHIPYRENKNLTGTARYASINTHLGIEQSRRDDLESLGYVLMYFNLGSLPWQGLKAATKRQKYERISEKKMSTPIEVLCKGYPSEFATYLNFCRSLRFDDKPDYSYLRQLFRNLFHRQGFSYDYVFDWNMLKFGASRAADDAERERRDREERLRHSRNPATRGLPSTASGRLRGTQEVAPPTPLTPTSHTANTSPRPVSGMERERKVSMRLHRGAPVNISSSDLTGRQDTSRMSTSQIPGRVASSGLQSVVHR

p38α = p38α (Homo sapiens, UniProt Q16539); assay: p38α inhibition IC50; format: biochemical
Sequence of p38α (Q16539 whole entry): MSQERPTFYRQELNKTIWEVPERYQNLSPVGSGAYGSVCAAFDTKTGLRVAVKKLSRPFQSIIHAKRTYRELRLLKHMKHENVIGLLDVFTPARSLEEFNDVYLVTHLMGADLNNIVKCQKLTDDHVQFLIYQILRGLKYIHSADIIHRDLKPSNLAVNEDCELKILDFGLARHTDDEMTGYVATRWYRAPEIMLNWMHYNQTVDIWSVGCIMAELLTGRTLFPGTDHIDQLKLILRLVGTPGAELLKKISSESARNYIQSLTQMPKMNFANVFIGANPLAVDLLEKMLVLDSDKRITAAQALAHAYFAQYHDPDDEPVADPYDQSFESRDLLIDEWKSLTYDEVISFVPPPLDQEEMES

[1] = Table 7, p38 compounds, read-out: IC50 CK1a
[2] = 72 h, Table 4, 72 h treatment protocol, read-out: DUX4 EC50
[3] = 72 h, Table 6, 72 h treatment protocol, read-out: DUX4 EC50
[4] = 15 h, read-out: EC50 for DUX4 repression

Sequence of CK1α (P48729 whole entry): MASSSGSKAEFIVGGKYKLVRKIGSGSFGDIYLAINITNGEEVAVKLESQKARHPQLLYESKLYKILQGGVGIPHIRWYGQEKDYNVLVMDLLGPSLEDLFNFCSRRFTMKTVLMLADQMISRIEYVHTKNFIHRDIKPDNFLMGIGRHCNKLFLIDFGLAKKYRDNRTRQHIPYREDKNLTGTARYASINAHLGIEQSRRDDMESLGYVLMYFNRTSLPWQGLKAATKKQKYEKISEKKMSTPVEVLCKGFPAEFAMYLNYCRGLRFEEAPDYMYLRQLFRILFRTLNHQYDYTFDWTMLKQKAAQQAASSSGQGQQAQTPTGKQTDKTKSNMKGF

| SMILES | IC50 (CK1α; [1]) [nM] | IC50 (CK1α; Table 4, read-out: CK1 a IC50) [nM] | IC50 (CK1α; Table 6, read-out: IC50 CK1α) [nM] | EC50 (DUX4; [2]) [nM] | EC50 (DUX4; [3]) [nM] | IC50 (CK1δ; Table 4, read-out: CK1 d IC50) [nM] | IC50 (CK1δ; Table 6, read-out: IC50 CK1δ) [nM] | IC50 (p38α; Table 4, read-out: p38a IC50) [nM] | other results |
| --- | --- | --- | --- | --- | --- | --- | --- | --- | --- |
| Cn1c(=O)c(Oc2ccc(F)cc2F)cc2cnc(NC(CCO)CCO)nc21 [Pamapimod, reference compound] | > 10000 | – | – | – | – | – | – | – | – |
| Cn1cc(-c2ccncc2)c(-c2ccc(F)cc2)n1 [Nr. 17] | – | 873 | 873 | 2900 | 2900 | 36.1 | 36 | 63.2 | IC50 (p38α; Table 6, read-out: IC50 p38α): 63 nM |
| CC1(C)CN(c2ccc3nc(-c4ccccc4)c(-c4ccncc4)n3n2)CCN1 [Nr. 10] | – | – | – | 10 | 10 | – | – | – | – |
| Cn1cc(-c2ccnc3[nH]ccc23)c(-c2ccc(F)cc2)n1 [Nr. 16] | – | 196 | 196 | 1200 | 1200 | 16.9 | 17 | – | IC50 (p38α; IC50 p38α, Table 6): 18 nM; IC50 (p38α; p38a IC50, Table 4): 17.9 nM |
| Fc1ccc(-c2nc3ccc(N4CCNC5(CC5)C4)nn3c2-c2ccncc2)cc1 [Nr. 21] | – | 61.4 | 61 | 100 | 100 | 58.5 | 58 | 28.9 | IC50 (p38α; Table 6, read-out: IC50 p38α): 29 nM |
| CNCc1cc(-c2cn(C)nc2-c2ccc(F)cc2)ccn1 [Nr. 9] | – | – | – | – | – | – | 58 | – | EC50 (DUX4; [4]): 3100 to 5500 nM; EC50 (DUX4; 72 h, read-out: DUX4 EC50): 6400 nM |
| Fc1ccc(-c2nn(CC(F)(F)F)cc2-c2ccnc3[nH]ccc23)cc1 [Nr. 20] | – | 186 | 186 | 2200 | 2200 | 55.5 | 55 | 50.3 | IC50 (p38α; Table 6, read-out: IC50 p38α): 50 nM |
| Fc1cccc(-n2cnc3c(NCc4nc5ccc(F)c(F)c5[nH]4)nc(N4CCOCC4)nc32)c1 [SR-3029, reference compound] | – | – | – | – | – | – | – | – | EC50 (DUX4; 15 h, read-out: DUX4 EC50): 50 nM; EC50 (DUX4; [4]): 50 to 120 nM; IC50 (p38α; Table 3, read-out: p38a IC50): > 1000 nM |
| Cc1cc(-c2cn(C)nc2-c2ccc(F)cc2)ccn1 [Nr. 19] | – | 4020 | 4020 | 4900 | 4900 | 80.7 | 81 | 449 | IC50 (p38α; Table 6, read-out: IC50 p38α): 449 nM |
| Fc1ccc(-c2nc3ccc(N4CCNCC4)nn3c2-c2ccnnc2)cc1 [Nr. 22] | – | 194 | 194 | 1100 | 1100 | 57.7 | 58 | 411 | IC50 (p38α; Table 6, read-out: IC50 p38α): 411 nM |
| c1ccc(-c2nc3ccc(N4CCNCC4)nn3c2-c2ccncc2)cc1 [Nr. 12] | – | – | – | 50 | 50 | – | – | – | – |
| c1ccc(-c2nc3ccc(N4CCC(N5CCCC5)CC4)nn3c2-c2ccncc2)cc1 [Nr. 13] | – | – | – | 310 | 310 | – | – | – | – |
| Cc1c(F)cc(C(=O)NC2CC2)cc1-c1ccc(C(=O)NCC(C)(C)C)cn1 [Losmapimod, reference compound] | > 10000 | – | – | – | – | – | – | – | effect on DUX4 (DUX4; added during the last 15 h of differentiation): did not show any effect |
| Cc1ccc(-n2nc(C(C)(C)C)cc2NC(=O)NCc2cc(F)ccc2Oc2ccc3c(cnn3CCO)c2)cc1 [pexmetinib, reference compound] | > 10000 | – | – | – | – | – | – | – | – |
| CN1CCN(c2ccc3nc(-c4ccccc4)c(-c4ccncc4)n3n2)CC1 [Nr. 11] | – | – | – | 250 | 250 | – | – | – | – |

More lines, main results first:

| IC50 (CK1α; [1]) [nM] | IC50 (CK1α; Table 4, read-out: CK1 a IC50) [nM] | IC50 (CK1α; Table 6, read-out: IC50 CK1α) [nM] | EC50 (DUX4; [2]) [nM] | EC50 (DUX4; [3]) [nM] | IC50 (CK1δ; Table 4, read-out: CK1 d IC50) [nM] | IC50 (CK1δ; Table 6, read-out: IC50 CK1δ) [nM] | IC50 (p38α; Table 4, read-out: p38a IC50) [nM] | SMILES | other results |
| --- | --- | --- | --- | --- | --- | --- | --- | --- | --- |
| > 10000 | – | – | – | – | – | – | – | NC(=O)c1ccc(N(C(N)=O)c2c(F)cccc2F)nc1-c1ccc(F)cc1F [VX702, 2-(2,4-difluorophenyl)-6-(1-(2,6-difluoropheny)ureido)nicotinamide, reference compound] | – |
| > 10000 | – | – | – | – | – | – | – | CCCNC(=O)c1cn2ncnc(Nc3cc(C(=O)NC4CC4)ccc3C)c2c1C [BMS-582949, reference compound] | – |
| – | – | – | 760 | 760 | – | – | 32.4 | Nc1nccc(-c2c(-c3ccc(F)cc3)ncn2C2CCCCC2)n1 [PF-670462, reference compound] | effect on DUX4 (DUX4; 72 h treatment): repress DUX4; IC50 (p38α; Table 3, read-out: p38a IC50): 32.4 nM |
| > 10000 | – | – | – | – | – | – | – | CNC(=O)c1ccc(C)c(-n2c(C)cc(OCc3ccc(F)cc3F)c(Br)c2=O)c1 [PH797804, reference compound] | – |
| > 10000 | – | – | – | – | – | – | – | C[C@@H]1CN(Cc2ccc(F)cc2)[C@@H](C)CN1C(=O)c1cc2c(C(=O)C(=O)N(C)C)cn(C)c2cc1Cl [SCIO469, reference compound] | – |
